Test results taken from patent US9635854B2, “Controlling red rice with mesotrione” (FMC Corporation, priority 2014, dated 2017).
Like-named read-outs stand apart in the source and are kept apart here.

Tests used:
[1] = system: Rice (Oryza sativa) 'Jupiter'; details: PRE, direct-seeded flooded rice
Method: (§1) Rice (Oryza sativa) crop varieties (‘Cybonee’, ‘Jupiter’, and ‘Taggart’) and red rice (Oryza sativa) were planted in 6 inch plastic pots containing sterile top soil. Eight to ten seeds of each species were seeded at 12 o'clock, 3 o'clock, 6 o'clock or 9 o'clock around the pot. The pots were watered after planting. […] The test solutions were applied using a compressed air track spray chamber at 30 gallons per acre using a Teejet 8001E nozzle at 40 PSI, three replicates per test rate. After treatment, the pots were watered lightly and transferred to trays in a greenhouse. After the plants were two inches in height the trays were flooded with water and maintained as such for 14 days. The trays were emptied of water and the pots were maintained by regular watering for 4 more days. At 14, 21 and 28 days after treatment (DAT) the plants were evaluated versus untreated control pots containing the same rice and weeds using a scale of 0% (no control) to 100% (complete plant death).

[2] = system: Rice (Oryza sativa) 'Cybonee'; details: PRE, direct-seeded flooded rice
Method: as §1

CS(=O)(=O)c1ccc(C(=O)C2C(=O)CCCC2=O)c([N+](=O)[O-])c1 [Mesotrione, mesotrione]
Percent rice injury Jupiter ([1]; 14 DAT, 12.5 g ai/ha): 2 B % | Percent rice injury Jupiter ([1]; 14 DAT, 25 g ai/ha): 2 B % | Percent rice injury Jupiter ([1]; 14 DAT, 37.5 g ai/ha): 4 B % | Percent rice injury Jupiter ([1]; 14 DAT, 50 g ai/ha): 2 B % | Percent rice injury Jupiter ([1]; 14 DAT, 62.5 g ai/ha): 5 B % | Percent rice injury Jupiter ([1]; 14 DAT, 75 g ai/ha): 6 B % | Percent rice injury Jupiter ([1]; 14 DAT, 87.5 g ai/ha): 12 B % | Percent rice injury Jupiter ([1]; 14 DAT, 100 g ai/ha): 11 B % | Percent rice injury Jupiter ([1]; 21 DAT, 12.5 g ai/ha): 0 D % | Percent rice injury Jupiter ([1]; 21 DAT, 25 g ai/ha): 0 D % | Percent rice injury Jupiter ([1]; 21 DAT, 37.5 g ai/ha): 1 CD % | Percent rice injury Jupiter ([1]; 21 DAT, 50 g ai/ha): 3 CD % | Percent rice injury Jupiter ([1]; 21 DAT, 62.5 g ai/ha): 5 CD % | Percent rice injury Jupiter ([1]; 21 DAT, 75 g ai/ha): 13 BCD % | Percent rice injury Jupiter ([1]; 21 DAT, 87.5 g ai/ha): 22 BC % | Percent rice injury Jupiter ([1]; 21 DAT, 100 g ai/ha): 28 B % | Percent rice injury Jupiter ([1]; 28 DAT, 12.5 g ai/ha): 2 D % | Percent rice injury Jupiter ([1]; 28 DAT, 25 g ai/ha): 2 D % | Percent rice injury Jupiter ([1]; 28 DAT, 37.5 g ai/ha): 4 D % | Percent rice injury Jupiter ([1]; 28 DAT, 50 g ai/ha): 5 D % | Percent rice injury Jupiter ([1]; 28 DAT, 62.5 g ai/ha): 8 CD % | Percent rice injury Jupiter ([1]; 28 DAT, 75 g ai/ha): 20 BCD % | Percent rice injury Jupiter ([1]; 28 DAT, 87.5 g ai/ha): 44 B % | Percent rice injury Jupiter ([1]; 28 DAT, 100 g ai/ha): 41 BC % | Percent rice injury Cybonet ([2]; 14 DAT, 12.5 g ai/ha): 2 B % | Percent rice injury Cybonet ([2]; 14 DAT, 25 g ai/ha): 0 B % | Percent rice injury Cybonet ([2]; 14 DAT, 37.5 g ai/ha): 3 B % | Percent rice injury Cybonet ([2]; 14 DAT, 50 g ai/ha): 4 B % | Percent rice injury Cybonet ([2]; 14 DAT, 62.5 g ai/ha): 11 B % | Percent rice injury Cybonet ([2]; 14 DAT, 75 g ai/ha): 9 B % | Percent rice injury Cybonet ([2]; 14 DAT, 87.5 g ai/ha): 12 B % | Percent rice injury Cybonet ([2]; 14 DAT, 100 g ai/ha): 11 B % | Percent rice injury Cybonet ([2]; 21 DAT, 12.5 g ai/ha): 1 C % | Percent rice injury Cybonet ([2]; 21 DAT, 25 g ai/ha): 4 C % | Percent rice injury Cybonet ([2]; 21 DAT, 37.5 g ai/ha): 8 C % | Percent rice injury Cybonet ([2]; 21 DAT, 50 g ai/ha): 6 C % | Percent rice injury Cybonet ([2]; 21 DAT, 62.5 g ai/ha): 13 BC % | Percent rice injury Cybonet ([2]; 21 DAT, 75 g ai/ha): 32 ABC % | Percent rice injury Cybonet ([2]; 21 DAT, 87.5 g ai/ha): 44 AB % | Percent rice injury Cybonet ([2]; 21 DAT, 100 g ai/ha): 49 A % | Percent rice injury Cybonet ([2]; 28 DAT, 12.5 g ai/ha): 5 CD % | Percent rice injury Cybonet ([2]; 28 DAT, 25 g ai/ha): 7 CD % | Percent rice injury Cybonet ([2]; 28 DAT, 37.5 g ai/ha): 9 CD % | Percent rice injury Cybonet ([2]; 28 DAT, 50 g ai/ha): 7 CD % | Percent rice injury Cybonet ([2]; 28 DAT, 62.5 g ai/ha): 17 BCD % | Percent rice injury Cybonet ([2]; 28 DAT, 75 g ai/ha): 32 ABC % | Percent rice injury Cybonet ([2]; 28 DAT, 87.5 g ai/ha): 52 A % | Percent rice injury Cybonet ([2]; 28 DAT, 100 g ai/ha): 62 A %
